Legend:
[1] = system: normal cell lines (panel of five); assay: MTT growth inhibition, mean over normal cell line panel; assay type: cell-based; settings: Homo sapiens, 72 h
Procedure: FIG. 7 is a graphical representation showing that Compound 1 (a131) induces selective cell growth inhibitory effects in a broad spectrum of human cancer cells. A panel of cancer and normal cell lines were treated with Compound 1 (a131) for 72 h and a mean G150 value (the concentration required to achieve 50% growth inhibition) was determined. A Student's t-test indicated a statistically significant difference at p<0.05 (p=0.017) between normal cells and cancer cells treated with Compound 1 (a131). […]
The MTT assay was performed by adding thiazolyl blue tetrazolium bromide (MTT reagent, Invitrogen) at a concentration of 0.5 mg/mL to each cell culture and the resulting mixture incubated for 4 h at 37° C. […] The absorbance of each well at 540 nm and 660 nm was measured using a microplate reader (Benchmark plus, BIO-RAD). The optical density (OD) values were calculated by subtracting the absorbance at 660 nm from the absorbance at 540 nm. […]

[2] = system: cleaved PARP and caspase-3 in oncogene-transformed human fibroblast BJ cells; assay: Immunoblot of cleaved PARP and cleaved caspase-3; assay type: cell-based; settings: 2.5 and 5 μM, 48 h
Procedure: FIGS. 5B, C provide a representation of an immunoblot analysis to examine the PARP or caspase-3 cleavage (B) and a histogram showing Caspase-3/7 activities, plotted as fold induction compared to DMSO-treated cells (C). BJ normal and transformed cells were treated with Compound 1 (a131) for 48 h. Cells were harvested and total lysates were analysed by detecting cleaved PARP or caspase-3 or caspase-3/7 activities as markers for apoptotic induction. […] Student's t-test was performed to determine the statistical significance (**=p<0.001, ***=p<0.0001, n.s.=no significance).
Whether Compound 1 (a131)-induced cancer cell-lethality was mediated by apoptosis or non-apoptotic programmed cell death was determined. For this purpose, isogenic non-transformed and oncogene-transformed human fibroblast BJ cell lines were cultured in DMEM supplemented with 10% FBS. The cells were treated with Compound 1 (2.5 μM and 5 μM, DMSO). 48 h after treatment, total cell lysates were prepared for immunoblot analysis using antibodies against cleaved PARP and cleaved caspase-3, well-known markers for apoptosis. In addition, a fraction of total cell lysates was also subjected to Caspase-3/7 Glo (Promega) assay to measure the combined activity of caspase 3/7. This was determined using caspase-Glo 3/7 Assay Kit (Promega) and its activity was normalized to a number of viable cells as determined by MTT assay.

[3] = system: phospho-histone H3 (pH3) in HeLa cells; assay: Immunoblot analysis of phospho-histone H3 in HeLa cells; assay type: cell-based, human; settings: 6 h
Procedure: FIG. 1 is a diagrammatic representation of an immunoblot analysis showing the dual inhibition of the autophagic process and mitotic progression by Compound 1 (a131). HeLa cells were treated with the indicated μM concentration of Compound 1 (a131) or chloroquine for 6 h. Cells were harvested and total lysates were analysed by detecting the mitotic marker phospho-histone H3 at serine 10 (pH3 (Ser10)) and the autophagosome marker LC3. The band intensity ratios of LC3-II/LC3-I as compared to DMSO control (lane 1, 0 μM chloroquine, and lane 7, 0 μM a131) are indicated (Ratio). Antibodies raised against β-actin were used as an internal loading control.
The ability of Compound 1 to inhibit lysosome function was examined using immunoblotting. HeLa cervical cancer cells were cultured in Dulbecco's modified Eagle's medium (DMEM) supplemented with 10% Fetal Bovine Serum (FBS, Thermo Scientific). […]
Defects in lysosome function and inhibition of autophagy can be measured by accumulation of LC3-phosphatidylethanolamine conjugated non-soluble form (LC3-II), which are converted from soluble LC3-I. Thus, antibodies raised against LC3 (Cell Signaling, Cat#4108) were used to determine lysosomal function and integrity. […] The inhibitory ability of Compound 1 was also quantitatively compared to CQ.

N#C/C(=C\c1cccc2cnccc12)c1c[nH]c2ccccc12 [Compound 1, (Z)-2-(1H-indol-3-yl)-3-(isoquinolin-5-yl)acrylonitrile]
GI50 [1]: 6.5 µM
levels of cleaved PARP and caspase-3 [2]: markedly increased the levels of both cleaved PARP and caspase-3
inhibition of mitotic progression (levels of phospho-histone H3) [3]: potently inhibits mitotic progression
